Test results from article PMC5974779, “Prediction of Drug-Induced Hepatotoxicity Using Long-Term Stable Primary Hepatic 3D Spheroid Cultures in Chemically Defined Conditions” (Toxicological Sciences, 2018).
Where a name gives a salt, the structure may show the parent alone. Read-outs that look alike come from different tables or passages of the source.

Legend:
[1] = tested on: primary human hepatocytes (PHH) 3D spheroids
clinical DILI in man = settings: in vivo; cited from earlier work
[2] = cited from earlier work
PHH 2D sandwich cultures = settings: cited from earlier work; for hepatotoxicity detection in 2D sandwich cultures of PHH: 100× cmax, 24 h, high content imaging; for hepatotoxicity detection in 2D sandwich cultures of PHH / reactive oxygen species levels in 2D sandwich cultures of PHH: ref Xu et al., 2008
[3] = ref DrugBank and Prescribers' Digital Reference database; cited from earlier work
[4] = therapeutic total cmax, ref PMID
[5] = PHH 2D sandwich cultures, 100x Cmax, ref Xu 2008

| SMILES | Chemically defined spheroids (this study) 20x [1] | Classified as (clinical DILI in man) | Clinical DILI class (panel heading of Figure 4) (clinical DILI in man) | DILI in vivo (clinical DILI in man) | Type of DILI (clinical DILI in man) | Cmax [2, 4] | 2Dsw (Xu 2008) 100x (PHH 2D sandwich cultures; [5]) | also measured |
| --- | --- | --- | --- | --- | --- | --- | --- | --- |
| CN1CCN(CCCN2c3ccccc3Sc3ccc(C(F)(F)F)cc32)CC1 [Trifluoperazine] | Negative | POS | High DILI concern | POS | Cholestatic injury or Mixed hepatitis | 4.5 nM | Positive | hepatotoxicity evaluation in CD-spheroids [1]: predicted to be DILI negative; FDA (0-8) (clinical DILI in man): 2; FDA (Severity) (clinical DILI in man): less DILI concern; O'Brien et al. (2003) (clinical DILI in man): Moderately; Xu et al. (2008) (clinical DILI in man): Positive; hepatotoxicity detection in 2D sandwich cultures of PHH (PHH 2D sandwich cultures): flagged as hepatotoxic; reactive oxygen species levels in 2D sandwich cultures of PHH (PHH 2D sandwich cultures): only slight increases in reactive oxygen species levels |
| NS(=O)(=O)c1cc(C(=O)O)c(NCc2ccco2)cc1Cl [Furosemide] |  |  |  |  |  |  | Negative |  |
| C=C[C@H]1C[N@@]2CC[C@H]1C[C@@H]2[C@@H](O)c1ccnc2ccc(OC)cc12 [Quinidine] | Positive |  |  |  |  | 8660 nM |  | 2Dsw (Xu 2008) 100x (PHH 2D sandwich cultures): Positive |
| CCN(CC)C(=O)N1CCN(C)CC1 [Diethylcarbamazine] | Negative |  |  |  |  | 1630 nM |  |  |
| NC12CC3CC(CC(C3)C1)C2 [Amantadine] | Negative | NEG | DILI negative | NEG | Non-hepatotoxic | 4300 nM |  | FDA (0-8) (clinical DILI in man): 3; FDA (Severity) (clinical DILI in man): less DILI concern; Xu et al. (2008) (clinical DILI in man): Negative; 2Dsw (Xu 2008) 100x (PHH 2D sandwich cultures): Negative |
| CN(C)C(=O)C(CCN1CCC(O)(c2ccc(Cl)cc2)CC1)(c1ccccc1)c1ccccc1 [Loperamide] |  |  |  |  |  |  |  | Cmax ([2]; human, in vivo): 7.8 nM |
| COc1ccc([C@@H]2Sc3ccccc3N(CCN(C)C)C(=O)[C@@H]2OC(C)=O)cc1 [Diltiazem] | Negative |  |  |  |  | 327 nM |  |  |
| COCCOC(=O)C1=C(C)NC(C)=C(C(=O)OC(C)C)C1c1cccc([N+](=O)[O-])c1 (stereo not drawn) [Nimodipine] | Positive |  |  |  |  | 110 nM | Positive |  |
| CCCSc1ccc2nc(NC(=O)OC)[nH]c2c1 [Albendazole] | Negative | POS | Severe DILI | POS | Cholestatic injury or Mixed hepatitis | 900 nM | Positive | hepatotoxicity evaluation in CD-spheroids [1]: predicted to be DILI negative; FDA (0-8) (clinical DILI in man): 7; Suzuki et al. (2010) (clinical DILI in man): 1; Xu et al. (2008) (clinical DILI in man): Positive; hepatotoxicity detection in 2D sandwich cultures of PHH (PHH 2D sandwich cultures): flagged as hepatotoxic; reactive oxygen species levels in 2D sandwich cultures of PHH (PHH 2D sandwich cultures): only slight increases in reactive oxygen species levels |
| O=c1ccc2ccccc2o1 [Coumarin] | Positive | POS | High DILI concern | POS | Cholestatic injury | 10000 nM |  |  |
| CN(C)CCN(Cc1cccs1)c1ccccn1 [Methapyrilene] |  | NEG | DILI negative | NEG | Non-hepatotoxic | 170 nM |  | Extent of hepatic metabolism [3]: Moderate |
| CC(C)NCC(O)COc1ccc(CC(N)=O)cc1 (stereo not drawn) [Atenolol] |  |  |  |  |  |  | Negative |  |
| CC/C(=C(\c1ccccc1)c1ccc(OCCN(C)C)cc1)c1ccccc1 [Tamoxifen] |  |  |  |  |  | 160 nM |  | Extent of hepatic metabolism [3]: Extensive |
| CN1CCN(C2=Nc3cc(Cl)ccc3Nc3ccccc32)CC1 [Clozapine] |  |  |  |  |  | 2450 nM |  | Extent of hepatic metabolism [3]: Extensive |
| CCN(CC)C(=S)SSC(=S)N(CC)CC [Disulfiram] | Positive |  |  |  |  | 1350 nM |  |  |
| CN(C)[C@@H]1C(O)=C(C(N)=O)C(=O)[C@@]2(O)C(O)=C3C(=O)c4c(O)cccc4[C@@](C)(O)[C@H]3C[C@@H]12 [Tetracycline] |  | POS | High DILI concern | POS | Hepatocellular injury |  |  | FDA (0-8) (clinical DILI in man): 2; FDA (Severity) (clinical DILI in man): less DILI concern; Guo et al. (2005) (clinical DILI in man): 3; O'Brien et al. (2003) (clinical DILI in man): Moderately; Sakatis et al. (2012) (clinical DILI in man): Hepatotoxic; Suzuki et al. (2010) (clinical DILI in man): 1; Xu et al. (2008) (clinical DILI in man): Positive |
| CN(C)CCCN1c2ccccc2CCc2ccc(Cl)cc21 [Clomipramine] | Positive |  |  |  |  |  |  | hepatotoxicity detection in 2D sandwich cultures of PHH (PHH 2D sandwich cultures): liver toxicity was not recognized |

| SMILES | Chemically defined spheroids (this study) 20x [1] | Classified as (clinical DILI in man) | Clinical DILI class (panel heading of Figure 4) (clinical DILI in man) | DILI in vivo (clinical DILI in man) | Type of DILI (clinical DILI in man) | Cmax [2, 4] | 2Dsw (Xu 2008) 100x (PHH 2D sandwich cultures; [5]) | also measured |
| --- | --- | --- | --- | --- | --- | --- | --- | --- |
| CCC(=O)OCC(=O)[C@@]1(OC(=O)CC)[C@@H](C)C[C@H]2[C@@H]3CCC4=CC(=O)C=C[C@]4(C)[C@@]3(Cl)[C@@H](O)C[C@@]21C [Beclomethasone Dipropionate] | Negative |  |  |  |  | 0.15 nM |  |  |
| CCc1c(C)[nH]c2c1C(=O)C(CN1CCOCC1)CC2 (stereo not drawn) [Molindone] | Negative | POS | High DILI concern | POS | Hepatocellular injury | 1540 nM | Negative |  |
| Clc1ccc(COC(Cn2ccnc2)c2ccc(Cl)cc2Cl)c(Cl)c1 (stereo not drawn) [Miconazole] | Negative |  |  |  |  | 24 nM |  |  |
| O=C(O)c1cc(/N=N/c2ccc(S(=O)(=O)Nc3ccccn3)cc2)ccc1O [Sulfasalazine] | Positive |  |  |  |  | 15100 nM |  |  |
| COC(=O)C1=C(C)NC(C)=C(C(=O)OCCN(C)Cc2ccccc2)C1c1cccc([N+](=O)[O-])c1 (stereo not drawn) [Nicardipine] |  |  |  |  |  | 80 nM |  |  |
| N[C@@H](Cc1ccc(O)c(O)c1)C(=O)O [Levodopa] | Negative |  |  |  |  | 6850 nM | Negative |  |
| Cc1cccc(C)c1OCC(C)N (stereo not drawn) [Mexiletine] | Positive | POS | High DILI concern | POS | Hepatocellular injury or Mixed hepatitis | 35000 nM |  | FDA (0-8) (clinical DILI in man): 3; FDA (Severity) (clinical DILI in man): less DILI concern; Suzuki et al. (2010) (clinical DILI in man): 1; Xu et al. (2008) (clinical DILI in man): Positive; 2Dsw (Xu 2008) 100x (PHH 2D sandwich cultures): Positive |
| CC(N/C(=N\C#N)Nc1ccncc1)C(C)(C)C (stereo not drawn) [Pinacidil] | Negative | NEG | DILI negative | NEG | Non-hepatotoxic | 290 nM | Negative |  |
| CC(C)NCC(O)COc1cccc2[nH]ccc12 (stereo not drawn) [Pindolol] |  | NEG | DILI negative | NEG | Non-hepatotoxic | 270 nM | Negative | FDA (0-8) (clinical DILI in man): 0; Xu et al. (2008) (clinical DILI in man): Negative |
| C[C@]12CCC(=O)C=C1CC[C@@H]1[C@@H]2[C@@H](O)C[C@@]2(C)[C@H]1CC[C@]2(O)C(=O)CO [Hydrocortisone] | Negative | NEG | DILI negative | NEG | Non-hepatotoxic | 840 nM | Negative | FDA (0-8) (clinical DILI in man): 0; Xu et al. (2008) (clinical DILI in man): Negative |
| CC(C)NCC(O)COc1cccc2ccccc12 (stereo not drawn) [Propranolol] |  |  |  |  |  |  |  | Extent of hepatic metabolism [3]: Extensive |
| CN(C)CCC(c1ccc(Br)cc1)c1ccccn1 (stereo not drawn) [Brompheniramine Maleate] | Negative |  |  |  |  | 27 nM |  |  |
| CC(=O)CC(c1ccccc1)c1c(O)c2ccccc2oc1=O (stereo not drawn) [Warfarin] | Negative |  |  |  |  | 4860 nM |  |  |
| N=C(N)NC(=O)c1nc(Cl)c(N)nc1N [Amiloride] | Negative | NEG | DILI negative | NEG | Non-hepatotoxic | 87 nM |  | FDA (0-8) (clinical DILI in man): 3; Suzuki et al. (2010) (clinical DILI in man): 2; Xu et al. (2008) (clinical DILI in man): Negative; 2Dsw (Xu 2008) 100x (PHH 2D sandwich cultures): Negative |
| NCCCC[C@H](N[C@@H](CCc1ccccc1)C(=O)O)C(=O)N1CCC[C@H]1C(=O)O [Lisinopril] | Positive |  |  |  |  | 660 nM |  | hepatotoxicity detection in 2D sandwich cultures of PHH (PHH 2D sandwich cultures): liver toxicity was not recognized |
| CC(=O)Nc1ccc(OCC(O)CNC(C)C)cc1 (stereo not drawn) [Practolol] | Negative |  |  |  |  | 18800 nM |  |  |
